“Also recorded” adds a separate entry of the source.
Columns and labels:
[1] = tested on: tau; assay: Tau PET tracer binding, SUVP peak-alignment method and positive binding percentage (PBP), AD patients and NL subjects; format: in vivo, human; conditions: for PBP of SUVP, Basal ganglia / PBP of SUVP, Cerebellar GM / PBP of SUVP, Cerebral GM / PBP of SUVP, Cerebral WM / PBP of SUVP, Frontal cortex / PBP of SUVP, Occipital cortex / PBP of SUVP, Partial cortex / PBP of SUVP, Temporal cortex: SUVP cutoff 1.5; for PBP of SUVP, Basal ganglia / PBP of SUVP, Cerebellar GM / PBP of SUVP, Cerebral GM / PBP of SUVP, Cerebral WM / PBP of SUVP, Frontal cortex / PBP of SUVP, Occipital cortex / PBP of SUVP, Partial cortex / PBP of SUVP, Temporal cortex / mean SUVP in cerebellum GM: mean (SD)
Excerpt: The set of standardized uptake values (with repetition) for all voxels within brain region r and subject s may be represented as SUV(r,s). Each of the values of SUV(r,s) may be normalized using a SUVP method represented as follows: SUVP(r,s)=(SUV(r,s)−M)/S, where M corresponds to a peak of the number of counts of emissions events recorded across all of the voxels of the PET image data, and S corresponds to a spread of all of the different counts of emissions events recorded across all of the voxels of the PET image data. Each subject's SUV image may be normalized and transferred into a standardized SUVP, using the standardized uptake value peak-alignment (SUVP) method described herein.
In one particular example, M is the sample mode of rounded SUV(r,s), and S is the standard deviation of SUV(r,s). Furthermore, the peak (M) values, in particular the sample mode of rounded SUV(r,s) may be used as a reference region to normalize raw SUV data using methods similar to SUVR.
In addition, as shown in step 112, a SUVP method may also be used to analyze regional percentages of positive binding in the PET data. Positive binding may be defined based on a predetermined cutoff value. The predetermined cutoff value may be any suitable value that is well above background signal. In some embodiments, the predetermined cutoff value may be manually set by a user. One important advantage of SUVP is that it standardized range of whole brain SUV into a generally fixed range regardless of tracer or disease condition, allowing universal cutoff for different tracers (e.g., 1.5 for all tracers), while SUVR cutoffs are tracer-dependent and varies across different studies (e.g., 1.5 for THK5315 and 1.2 for AV1451). Additionally, as discussed further below in Example I, when SUVP was calculated by using a standard deviation (SD), 1.5 times a SUVP cutoff value is equivalent to 1.5 times SD, which signifies a statistic meaningful way to distinguish and identify positive voxels. The percentage of positive binding (PBP) may be obtained by:
Subjects come from two sources. 18 subjects (9 AD patients, and 9 healthy elderly study participants) underwent ^18F-THK5351 PET scans from the memory clinic of Tohoku University Hospital. ^18F-AV-1451 scans were obtained from the ADNI (Alzheimer's Disease Neuroimaging Initiative) database (adni.loni.usc.edu). 32 Subjects (20 NL and 12 AD) with ^18F-AV-1451 were selected from ADNI, that were matched to the age and MMSE in participants of the THK5351 group.
(§1) PET imaging was performed using an Eminence STARGATE PET scanner (Shimadzu, Kyoto, Japan). After intravenous injection of ^18F-THK5351 (185 MBq), dynamic PET images were obtained for 60 min. acquisition matrix is 128×128×79 and voxels size is 2×2×2.6 mm. ^18F-THK5351 was synthesized. MRI was performed on all participants. T1 weighted MR images were obtained using a SIGNA 1.5-Tesla machine (General Electric, Milwaukee, Wis.). In T1-weighted MRI, a 3D volumetric acquisition of a T1-weighted gradient echo sequence produced a gapless series of thin axial sections by using a vascular TOF SPGR sequence (echo time/repetition time, 2.4/50 ms; flip angle, 45°; acquisition matrix, 256×256; 1 excitation; field of view, 22 cm; slice thickness, 2.0 mm).
AV-1451 data were downloaded from ADNI with series description “AV1451 Coreg, Avg, Std Img and Vox Siz, Uniform Resolution”. An intravenous injection of 10 mCi ^18F-AV-1451 (370 MBq) is followed by a saline flush. At approximately 75 minutes following injection, a continuous 30-minute brain scan (6 frames of 5-minute duration) was performed after a CT or transmission scan for attenuation correction. PET imaging was performed using GEMINI TF TOF 16 (Philips Medical Systems), with 6 frames; acquisition matrix 128×128×90; pixel spacing 2×2 mm; slice thickness 2 mm. […]

[2] = Off-target binding observed on PET images; format: in vivo, human; conditions: observed on PET image
Procedure: as §1
AV-1451 data were downloaded from ADNI with series description “AV1451 Coreg, Avg, Std Img and Vox Siz, Uniform Resolution”. An intravenous injection of 10 mCi ^18F-AV-1451 (370 MBq) is followed by a saline flush. At approximately 75 minutes following injection, a continuous 30-minute brain scan (6 frames of 5-minute duration) was performed after a CT or transmission scan for attenuation correction. PET imaging was performed using GEMINI TF TOF 16 (Philips Medical Systems), with 6 frames; acquisition matrix 128×128×90; pixel spacing 2×2 mm; slice thickness 2 mm.
Standardized uptake value (SUV) images were obtained by normalizing tissue radioactivity concentration by injected dose and bodyweight. Estimates of tau deposition were determined for THK53151 with the 40-60 min SUV and for AV1451 with for the 80-100 min SUV. Standard SUVR was generated by using cerebellar cortex as reference. To control the variation of SUVR measures in THK5351 and AV1451 PET caused by the off-target binding in reference region, each subject's SUV images were first transferred into standardized SUVP images, using the Peak-alignment method (as described above). […]

| SMILES | PBP of SUVP, Basal ganglia ([1]; AD patients) | PBP of SUVP, Cerebellar GM ([1]; AD patients) | PBP of SUVP, Cerebral GM ([1]; AD patients) | PBP of SUVP, Cerebral WM ([1]; AD patients) | PBP of SUVP, Frontal cortex ([1]; AD patients) | PBP of SUVP, Occipital cortex ([1]; AD patients) | PBP of SUVP, Partial cortex ([1]; AD patients) | PBP of SUVP, Temporal cortex ([1]; AD patients) | mean SUVP in cerebellum GM ([1]; AD patients) | PBP of SUVP, Basal ganglia ([1]; NL subjects) | PBP of SUVP, Cerebellar GM ([1]; NL subjects) | PBP of SUVP, Cerebral GM ([1]; NL subjects) | PBP of SUVP, Cerebral WM ([1]; NL subjects) | PBP of SUVP, Frontal cortex ([1]; NL subjects) | PBP of SUVP, Occipital cortex ([1]; NL subjects) | PBP of SUVP, Partial cortex ([1]; NL subjects) | PBP of SUVP, Temporal cortex ([1]; NL subjects) | mean SUVP in cerebellum GM ([1]; NL subjects) | regions with off-target binding [2] | other results |
| --- | --- | --- | --- | --- | --- | --- | --- | --- | --- | --- | --- | --- | --- | --- | --- | --- | --- | --- | --- | --- |
| CNc1ccc(-c2ccc3cc(OC[C@H](O)CF)ccc3n2)cn1 [THK5351] | 61.93(7.25) | .07(.10) | 5.56(1.47) | 8.70(3.24) | 1.25(0.86)^ | 1.73(2.79)^ | 2.16(3.33)^+ | 17.94(5.15)*^+ | −1.24(0.24) | 81.24(8.55)^++ | .10(.14) | 3.81(2.19) | 7.06(1.55) | 2.37(1.25)^+ | 0.05(0.09) | 0.17(0.21) | 6.93(4.78) | −1.21(0.28) | ponds and Amygdala; also recorded: cerebral white matter and basal ganglia region | decrease of cerebellum GM SUVP in AD comparing to NL ([1]; AD vs NL): 2.5% |
| [18F]c1ccc(-c2ccc3c(c2)[nH]c2ccncc23)cn1 [AV-1451] | 18.55(12.28)^ | .90(1.46) | 9.4(10.83)^+ | 7.86(7.44)^+ | 5.32(7.70)^ | 5.59(8.23)^+ | 10.2(15.2)^+ | 20.72(20.48)*^+ | −0.73(0.43) | 28.14(11.42) | .83(1.45) | 1.85(3.24) | 2.65(3.64) | 0.78(1.43) | 0.54(1.58) | 0.95(3.21) | 5.44(11.10) | −1.00(0.45) | choroidal plexus and substantia nigra; also recorded: cerebral white matter and basal ganglia region | increase of cerebellar GM SUVP in AD comparing to NL ([1]; AD vs NL): 37%; regions with off-target binding ([2]; listed as AV1451): cerebellum |

Reference: patent publication US10945685B2, “System and method for normalizing standardized uptake values in brain positron emission tomography (PET) images” (New York University, priority 2018, dated 2021)
